Test system: murine Colo-26 tumors
Experiment: MR imaging of Colo-26 tumors 30 min after P-PDT
Format: in vivo
Conditions: P-PDT: 0.4 μmol/kg HPPH i.v., 24 h later 6 μmol/kg VBBO i.v., 3 h later 500 J/cm^2 at 619 nm; imaged 30 min after P-PDT; especially in the treated tumor
Description: FIG. 1 is a set of MR images of Colo-26 tumors taken 30 minutes after P-PDT to the tumor on the left of each image.
FIG. 1 illustrates the response of the vasculature in murine Colo-26 tumors to P-PDT. […] In this case, P-PDT involved i.v. injection of 0.4 μmol/kg HPPH (2-[1-hexyl-oxyethyl]-2-devinyl pyropheophoribde-a), followed 24 h later by i.v. injection of 6 μmol/kg VBBO (Victoria Blue-BO), followed 3 h later by local exposure of the tumor to 500 J/cm^2 of light at a wavelength of 619 nm. In Frame A, one can observe that the T2 weighted MRI image of the P-PDT treated tumor is markedly brighter than the control, which is believed to be due to increased water content because of enhanced edema and permeability in that tumor. Image intensity is further heightened by carbogen breathing as shown in Frame B of FIG. 1. […] Changes in signal intensity originate with the magnetic susceptibility of hemoglobin and are dependent on its oxygenation status. Oxyhemoglobin is diamagnetic, while deoxyhemoglobin is paramagnetic. The magnetic susceptibility differences between deoxyhemoglobin and surrounding tissue water create local field gradients that cause phase dispersion of nearby water protons, resulting in a loss of MR signal intensity. […]

CCCCCCOC(C)c1c(C)c2cc3nc(c4c5[nH]c(cc6nc(cc1[nH]2)C(C)=C6CC)c(C)c5C(=O)C4)[C@@H](CCC(=O)O)[C@@H]3C (stereo partly shown) [HPPH, 2-[1-hexyl-oxyethyl]-2-devinyl pyropheophoribde-a]
increase in MR image intensity during carbogen breathing: up to 40%

From patent publication US20040010218A1, “Photodynamic therapy for the enhancement of vascular permeability to aid in drug delivery to diseased tissues” (priority 2002, published 2004)
